Assay results from US20030039658A1, “MCEF, a novel transcription factor” (priority 2000, published 2003).

Test: Geldanamycin cytotoxicity
Format: cell-based

## COC1=C2C[C@@H](C)C[C@H](OC)[C@H](O)[C@@H](C)/C=C(\C)[C@H](OC(N)=O)[C@@H](OC)/C=C\C=C(/C)C(=O)NC(=CC1=O)C2=O [Geldanamycin]
  cytotoxicity: primarily the result of GA cytotoxicity
